# Test results from patent US9718792B2, “Isoxazoline hydroxamic acid derivatives as LpxC inhibitors” (priority 2014, dated 2017).
# Key:
# [1] = target: P. aeruginosa LpxC (Pseudomonas aeruginosa (strain ATCC 15692 / DSM 22644 / CIP 104116 / JCM 14847 / LMG 12228 / 1C / PRS 101 / PAO1), UniProt P47205); assay: P. aeruginosa LpxC Inhibition Assay; format: biochemical; details: 1 nM P. aeruginosa LpxC, 2 μM substrate, LC-MS/MS; read-out: PA LpxC IC50
# In short: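 Compounds pre-incubated 30 min at room temperature with 1 nM LpxC, then 2 μM UDP-3-O-(R-3-hydroxydecanoyl)-GlcNAc added; 20 min reaction in 50 mM sodium phosphate pH 7.5, 0.005% Triton X-100, quenched with HOAc. Product quantified by LC-MS/MS against calibration curve; IC50 from four-parameter logistic fit.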
# [2] = system: P. aeruginosa PAO1; assay: Susceptibility Testing (MIC, broth microdilution); format: cell-based, Pseudomonas aeruginosa; details: Pseudomonas aeruginosa, PAO1, 20 h, P. aeruginosa PAO1, broth microdilution, 20 hours; read-out: PAO1 MIC
# In short: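 Broth microdilution per CLSI in cation-adjusted Mueller-Hinton broth, inoculum ~5×10^5 CFU/mL, two-fold compound dilutions (1% DMSO final). Plates incubated 20 h in ambient air at 35° C. MIC is the lowest concentration preventing visible growth, confirmed by OD 600 nm reading.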
IC50 [1],MIC [2],SMILES
< 0.5 nM,0.5 µg/mL,"COC(CO)c1ccc(-c2ccc(C3=NO[C@@H](C[C@](C)(C(=O)NO)S(C)(=O)=O)C3)cc2)cc1 (stereo partly drawn) [Compound 75, (2R)—N-hydroxy-3-((5R)-3-(4′-(2-hydroxy-1-methoxyethyl)-[1,1′-biphenyl]-4-yl)-4,5-dihydroisoxazol-5-yl)-2-methyl-2-(methylsulfonyl)propanamidepropanamide]"
< 0.5 nM,2 µg/mL,"C[C@@](C[C@H]1CC(c2ccc(-c3ccc(S(C)(=N)=O)cc3)cc2)=NO1)(C(=O)NO)S(C)(=O)=O (stereo partly drawn) [Compound 76, (2R)—N-hydroxy-2-methyl-3-((5R)-3-(4′-(S-methylsulfonimidoyl)-[1,1′-biphenyl]-4-yl)-4,5-dihydroisoxazol-5-yl)-2-(methylsulfonyl)propanamide]"
< 0.5 nM,0.35 µg/mL,"C[C@@](C[C@H]1CC(c2ccc(-c3ccncc3Cl)cc2)=NO1)(C(=O)NO)S(C)(=O)=O [Compound 82, (R)-3-((R)-3-(4-(3-chloropyridin-4-yl)phenyl)-4,5-dihydroisoxazol-5-yl)-N-hydroxy-2-methyl-2-(methylsulfonyl)propanamide]"
< 0.5 nM,1 µg/mL,"CC(C)(O)c1ccc(-c2ccc(C3=NO[C@@H](C[C@](C)(C(=O)NO)S(C)(=O)=O)C3)cc2)cn1 [Compound 84, (R)—N-hydroxy-3-((R)-3-(4-(6-(2-hydroxypropan-2-yl)pyridin-3-yl)phenyl)-4,5-dihydroisoxazol-5-yl)-2-methyl-2-(methylsulfonyl)propanamide]"
< 0.5 nM,0.5 µg/mL,"Cc1cnccc1-c1ccc(C2=NO[C@@H](C[C@](C)(C(=O)NO)S(C)(=O)=O)C2)cc1 [Compound 85, (R)-3-((R)-3-(4-(3-methylpyridin-4-yl)phenyl)-4,5-dihydroisoxazol-5-yl)-N-hydroxy-2-methyl-2-(methylsulfonyl)propanamide]"
< 0.5 nM,0.71 µg/mL,"C[C@@H](O)Cc1ccc(-c2ccc(C3=NO[C@@H](C[C@](C)(C(=O)NO)S(C)(=O)=O)C3)cc2)c(F)c1 [Compound 89, (R)-3-((R)-3-(2′-fluoro-4′-((R)-2-hydroxypropyl)-[1,1′-biphenyl]-4-yl)-4,5-dihydroisoxazol-5-yl)-N-hydroxy-2-methyl-2-(methylsulfonyl) propanamide]"
< 0.5 nM,0.125 µg/mL,"C[C@@](C[C@H]1CC(c2ccc(-c3ccsc3)cc2)=NO1)(C(=O)NO)S(C)(=O)=O [Compound 91, (R)—N-hydroxy-2-methyl-2-(methylsulfonyl)-3-((R)-3-(4-(thiophen-3-yl)phenyl)-4,5-dihydroisoxazol-5-yl)propanamide]"
< 0.5 nM,0.35 µg/mL,"C[C@@](C[C@H]1CC(c2ccc(-c3cnsc3)cc2)=NO1)(C(=O)NO)S(C)(=O)=O [Compound 92, (R)—N-hydroxy-3-((R)-3-(4-(isothiazol-4-yl)phenyl)-4,5-dihydroisoxazol-5-yl)-2-methyl-2-(methylsulfonyl)propanamide]"
< 0.5 nM,0.5 µg/mL,"C[C@@](C[C@H]1CC(c2ccc(-c3ccc(C(O)CCO)cc3)cc2)=NO1)(C(=O)NO)S(C)(=O)=O (stereo partly drawn) [Compound 96, (2R)-3-((5R)-3-(4′-(1,3-dihydroxypropyl)-[1,1′-biphenyl]-4-yl)-4,5-dihydroisoxazol-5-yl)-N-hydroxy-2-methyl-2-(methylsulfonyl)propanamide]"
< 0.5 nM,0.25 µg/mL,C[C@@](C[C@H]1CC(c2ccc(-c3c(F)cncc3F)cc2)=NO1)(C(=O)NO)S(C)(=O)=O [Compound 100]
< 0.5 nM,0.35 µg/mL,"CCc1ccc(C2=NO[C@@H](C[C@](C)(C(=O)NO)S(C)(=O)=O)C2)cc1F [Compound 101, (R)-3-((R)-3-(4-ethyl-3-fluorophenyl)-4,5-dihydroisoxazol-5-yl)-N-hydroxy-2-methyl-2-(methylsulfonyl)propanamide]"

# Further lines, the compound ahead of its results:
SMILES,IC50 [1],MIC [2]
"C[S+]([O-])c1ccc(-c2ccc(C3=NO[C@@H](C[C@](C)(C(=O)NO)S(C)(=O)=O)C3)cc2)cc1 (stereo partly drawn) [Compound 74, (2R)—N-hydroxy-2-methyl-3-((5R)-3-(4′-(methylsulfinyl)-[1,1′-biphenyl]-4-yl)-4,5-dihydroisoxazol-5-yl)-2-(methylsulfonyl) propanamide]",< 0.5 nM,0.71 µg/mL
"C[C@@](C[C@H]1CC(c2ccc(-c3ccc(-n4nccn4)cc3)cc2)=NO1)(C(=O)NO)S(C)(=O)=O [Compound 77, (R)-3-((R)-3-(4′-(2H-1,2,3-triazol-2-yl)-[1,1′-biphenyl]-4-yl)-4,5-dihydroisoxazol-5-yl)-N-hydroxy-2-methyl-2-(methylsulfonyl)propanamide]",< 0.5 nM,2 µg/mL
"C[C@@](C[C@H]1CC(c2ccc(-c3ccncc3)cc2)=NO1)(C(=O)NO)S(C)(=O)=O [Compound 78, (R)-3-((R)-3-(4-(pyridin-4-yl)phenyl)-4,5-dihydroisoxazol-5-yl)-N-hydroxy-2-methyl-2-(methylsulfonyl)propanamide]",< 0.5 nM,1 µg/mL
"COc1cc(F)c(-c2ccc(C3=NO[C@@H](C[C@](C)(C(=O)NO)S(C)(=O)=O)C3)cc2)c(F)c1 [Compound 79, (R)-3-((R)-3-(2′,6′-difluoro-4′-methoxy-[1,1′-biphenyl]-4-yl)-4,5-dihydroisoxazol-5-yl)-N-hydroxy-2-methyl-2-(methylsulfonyl)propanamide]",< 0.5 nM,0.35 µg/mL
"CC(C)(O)c1cc(-c2ccc(C3=NO[C@@H](C[C@](C)(C(=O)NO)S(C)(=O)=O)C3)cc2)ccn1 [Compound 81, (R)—N-hydroxy-3-((R)-3-(4-(2-(2-hydroxypropan-2-yl)pyridin-4-yl)phenyl)-4,5-dihydroisoxazol-5-yl)-2-methyl-2-(methylsulfonyl)propanamide]",2 nM,16 µg/mL
"C[C@@](C[C@H]1CC(c2ccc(-c3cnccc3F)cc2)=NO1)(C(=O)NO)S(C)(=O)=O [Compound 83, (R)-3-((R)-3-(4-(4-fluoropyridin-3-yl)phenyl)-4,5-dihydroisoxazol-5-yl)-N-hydroxy-2-methyl-2-(methylsulfonyl)propanamide]",< 0.5 nM,1 µg/mL
"CO[C@@H](CO)Cc1ccc(-c2ccc(C3=NO[C@@H](C[C@](C)(C(=O)NO)S(C)(=O)=O)C3)cc2)cc1 [Compound 86, (R)—N-hydroxy-3-((R)-3-(4′-((R)-3-hydroxy-2-methoxypropyl)-[1,1′-biphenyl]-4-yl)-4,5-dihydroisoxazol-5-yl)-2-methyl-2-(methylsulfonyl)propanamide]",< 0.5 nM,0.35 µg/mL
"Cc1cc(CO)ccc1-c1ccc(C2=NO[C@@H](C[C@](C)(C(=O)NO)S(C)(=O)=O)C2)cc1 [Compound 87, (R)—N-hydroxy-3-((R)-3-(4′-(hydroxymethyl)-2′-methyl-[1,1′-biphenyl]-4-yl)-4,5-dihydroisoxazol-5-yl)-2-methyl-2-(methylsulfonyl)propanamide]",< 0.5 nM,0.25 µg/mL
"C[C@@H](O)Cc1cc(F)c(-c2ccc(C3=NO[C@@H](C[C@](C)(C(=O)NO)S(C)(=O)=O)C3)cc2)c(F)c1 [Compound 88, (R)-3-((R)-3-(2′,6′-difluoro-4′-((R)-2-hydroxypropyl)-[1,1′-biphenyl]-4-yl)-4,5-dihydroisoxazol-5-yl)-N-hydroxy-2-methyl-2-(methylsulfonyl) propanamide]",< 0.5 nM,0.25 µg/mL
"Cc1cc(C[C@@H](C)O)ccc1-c1ccc(C2=NO[C@@H](C[C@](C)(C(=O)NO)S(C)(=O)=O)C2)cc1 [Compound 90, (R)-3-((R)-3-(2′-methyl-4′-((R)-2-hydroxypropyl)-[1,1′-biphenyl]-4-yl)-4,5-dihydroisoxazol-5-yl)-N-hydroxy-2-methyl-2-(methylsulfonyl) propanamide]",< 0.5 nM,0.5 µg/mL
"C[C@@H](O)[C@@H](O)Cc1ccc(-c2ccc(C3=NO[C@@H](C[C@](C)(C(=O)NO)S(C)(=O)=O)C3)cc2)cc1 [Compound 93, (R)-3-((R)-3-(4′-((2S,3R)-2,3-dihydroxybutyl)-[1,1′-biphenyl]-4-yl)-4,5-dihydroisoxazol-5-yl)-N-hydroxy-2-methyl-2-(methylsulfonyl) propanamide]",< 0.5 nM,2 µg/mL
"C[C@@](C[C@H]1CC(c2ccc(-c3ccc([C@H](O)CO)cc3)cc2)=NO1)(C(=O)NO)S(C)(=O)=O [Compound 94, (R)-3-((R)-3-(4′-((S)-1,2-dihydroxyethyl)-[1,1′-biphenyl]-4-yl)-4,5-dihydroisoxazol-5-yl)-N-hydroxy-2-methyl-2-(methylsulfonyl)propanamide]",< 0.5 nM,0.25 µg/mL
"C[C@@](C[C@H]1CC(c2ccc(-c3ccc([C@@H](O)CO)cc3)cc2)=NO1)(C(=O)NO)S(C)(=O)=O [Compound 95, (R)-3-((R)-3-(4′-((R)-1,2-dihydroxyethyl)-[1,1′-biphenyl]-4-yl)-4,5-dihydroisoxazol-5-yl)-N-hydroxy-2-methyl-2-(methylsulfonyl)propanamide]",< 0.1 nM,0.25 µg/mL
"C[C@@](C[C@H]1CC(c2ccc(C#CC3CCOCC3)cc2)=NO1)(C(=O)NO)S(C)(=O)=O [Compound 98, (R)—N-hydroxy-2-methyl-2-(methylsulfonyl)-3-((R)-3-(4-((tetrahydro-2H-pyran-4-yl)ethynyl)phenyl)-4,5-dihydroisoxazol-5-yl)propanamide]",0.6 nM,2 µg/mL
